Test results as given in patent US20120190752A1, “EXO-S-MECAMYLAMINE METHOD, USE, AND COMPOUND FOR TREATMENT” (Targacept Inc., priority 2009, published 2012).

System: subjects with major depressive disorder (MDD) who were inadequate responders to citalopram
Test: CGI-SI (Clinical Global Impression-Severity of Illness), Phase 2b add-on trial
Assay type: in vivo, human
Text: The Clinical Global Impression rating scales are commonly used measures of symptom severity, treatment response and the efficacy of treatments in treatment studies of patients with mental disorders (Guy, W., 1976). The Clinical Global Impression—Severity scale (CGI-S) is a 7-point scale that requires the clinician to rate the severity of the patient's illness at the time of assessment, relative to the clinician's past experience with patients who have the same diagnosis. Considering total clinical experience, a patient is assessed on severity of mental illness at the time of rating. In more detail, a multi-center double-blind, randomized, placebo-controlled, parallel group, flexible dose titration study of TC-5214 as adjunctive therapy in subjects with major depressive disorder (MDD) who were inadequate responders to citalopram was conducted in centers in the US and India. The study consisted of a screening period, baseline/washout period, open-label phase, double-blind phase, and a follow-up visit. Subject participation in the study could continue for up to 16 weeks of treatment. Following a washout period of up to 28 days for other antidepressants, subjects with MDD and a MADRS total score >/=28 and a Clinical Global Impression-Severity (CGI-S) score >/=4 were enrolled on Day 1 into an open-label citalopram-only phase of the study. This phase lasted 8 weeks, with citalopram (CIT) dose increased from a once-daily dose of 20 mg (Day 1 through Week 4) to 40 mg (Week 4 through Week 8). A total of 579 subjects entered the open-label citalopram phase. At Week 8, subjects who tolerated 40 mg CIT, but whose MADRS score was reduced <50% from baseline and no lower than 17, and CGI-S≧4, were considered inadequate responders. These subjects (n=270) were randomized in a double-blind fashion to receive either placebo or TC-5214-23 as add-on therapy to continued CIT. The double-blind phase of the study also lasted 8 weeks (Week 8 to Week 16). Study drug, TC-5214-23 or placebo, was started at 2 mg daily (1 mg twice per day [BID] dosing), added on to continuing CIT (40 mg PO qd). After 2 weeks of treatment, the dose of TC-5214 could be increased to 4 mg (2 mg BID) or continued unchanged, with up-titration based upon good tolerability and inadequate therapeutic response. After a further 2 weeks, the dose of TC-5214 could be increased again to 8 mg (4 mg BID) if judged appropriate by the investigator, based upon good tolerability and inadequate therapeutic response. At any time during the double-blind phase of the study, placebo or TC-5214-23 could be reduced to the previous dose level following the emergence of unacceptable adverse events (AEs). […] At this follow-up, any signs or symptoms of relapse were evaluated. If a subject was prematurely discontinued from the study between Week 8 and Week 16 for any reason, the investigator was to make every effort to perform all evaluations as per protocol, assuming the subject had reached the end of the double-blind add-on treatment phase. These evaluations were to be made as soon as possible and within 2 weeks of discontinuation. […] There was no meaningful difference in results as a function of age, gender, site, or smoking status. With regard to efficacy endpoints, the following tables present efficacy used in the ITT (Intent-to-Treat) and PP (Per Protocol) populations unless otherwise specific. The primary inference was based upon Week 16 visit using the ITT population. Change from baseline was obtained by subtracting the baseline values from the individual on-treatment values. Change from Week 16 was obtained by subtracting the Week 16 values from the individual follow-up visit (Week 18/19) values. If either the baseline or Week 16 or on-treatment or follow-up value was missing, the change from baseline or Week 16 value was also set to missing. […]

[1] = ITT, Double Blind Week 18 LOCF (Follow-up), change from Week 16
[2] = PP, Double Blind Week 16 LOCF (change from Week 8)
[3] = PP, Double Blind Week 18 LOCF (Follow-up), change from Week 16

## CNC1(C)C2CCC(C2)C1(C)C (stereo in doubt) [TC-5214, (S)—N,2,3,3-tetramethylnorbornan-2-amine]
ITT and PP populations, result in words
  CGI-SI score change from baseline compared with placebo: statistically significant decreases (improvements)
ITT, Double Blind Week 16 LOCF (change from Week 8)
  CGI-SI Mean Difference between TC-5214 and Placebo: 0.87
[1]
  CGI-SI Adjusted Mean change: −0.05
  CGI-SI Mean Difference between TC-5214 and Placebo: 0.01
ITT, Week 8 to Week 16 LOCF
  CGI-SI Difference vs Placebo + CIT: −0.87
ITT, change from Week 8 (double-blind baseline) to Week 16 LOCF, add-on to citalopram
  CGI-SI Adj. Mean change: −1.79
[2]
  CGI-SI Adjusted Mean change: −2.00
  CGI-SI Mean Difference between TC-5214 and Placebo: 0.92
[3]
  CGI-SI Adjusted Mean change: −0.07
  CGI-SI Mean Difference between TC-5214 and Placebo: 0.05
